Source: patent publication US20120083472A1, “PHARMACEUTICAL COMPOSITION FOR PROMOTING THE HEALING OF WOUNDS AND CONTAINING LYSOPHOSPHATIDIC ACID AND AN ADENYLYL CYCLASE INHIBITOR AS ACTIVE INGREDIENTS” (SNU R&DB FOUNDATION, priority 2009, published 2012)

Assays:
Assay type in all cases: cell-based, human
[1] = system: cAMP level in young and senescent fibroblasts; experiment: Measurement of cyclic AMP (cAMP) by competitive binding assay
Experimental: Sub-cultured young (PD 20) and senescent (PD 65) fibroblasts were treated with various concentrations of ACI for 1 hr. The level of cAMP in the acid extracts was measured by using a cAMP binding assay. The results shown represent the means±standard deviation of a representative experiment.
(§1) Human umbilical vein endothelial cells (HUVEC) were isolated from endothelial cells of umbilical cords as described by Whang et al (Whang et al., 2005). Foreskin human fibroblasts and keratinocytes were isolated from newborn foreskins as described by Boyce and Ham (Boyce and Ham, 1983). Patient consents were obtained from all donors and the use of tissue samples was approved by the ethics committee of the Seoul National University. The obtained and isolated fibroblasts and HUVEC were maintained in DMEM containing 10% fetal bovine serum (FBS) and antibiotics, and keratinotyes were in keratinocyte growth medium (KGM) containing antibiotics. Cells from the early stage of culture were cultured to obtain aged cells, which were used in experiments (population doubling -PD- of less than 25 vs PD 65-70 in fibroblasts, PD less than 5 vs PD 10-12 in case of HUVEC). Senescent cells were characterized by morphological changes, enhanced […]β-galactosidase activity and a reduced rate of proliferation (Yeo et al., 2000). Cells were grown for 2 days to 60-70% sub-confluency in the culture medium after treatment with LPA or ACI, and then serum-starved to quiescence by incubating them with either serum free DMEM containing 0.1% BSA (fibroblasts or HUVEC) or KBM (keratinocytes) for 2 days.
After removing the medium, 2.5 M of perchloric acid was added into the plate. The obtained acid extract was stored at […] until use, when the extract was neutralized with 4.2 M KOH and the cAMP content was determined by competitive binding with [^3H]-cAMP to the cAMP binding protein, RIα[…] of cAMP-dependent protein kinase (Jang and Juhnn, 2001). After the extraction, cells were lysed with 0.1 N NaOH and protein content was determined using Bradford protein assay reagent. The cAMP content was normalized versus the amount of acid-insoluble protein (expressed as the content of cAMP per protein concentration).

[2] = system: young and senescent fibroblasts, HUVEC, skin keratinocytes; experiment: Cell growth / proliferation (cell number count); details: for cell number in senescent cells of various cell types: senescent fibroblasts, old donor fibroblasts, HUVEC, keratinocytes, degree depends on cell type (FIG. 5)
Experimental: Sub-cultured young (PD 25, A) and senescent (PD 73, B) fibroblasts were serum-starved for 2 days and treated with LPA, 1 mM of dbcAMP (+dbcAMP), or 300 μM of ACI SQ22536 (+ACI) for 4 days. The number of cells was counted. The results shown represent the means±standard deviation of a representative experiment.
Sub-cultured young (PD 25) and senescent (PD 73) cells (A), fibroblasts from young and elderly donors (B), HUVEC (C) and skin keratinocytes (D) were serum-starved for 2 days and treated with LPA, and then treated with 1 mM of dibutyryl-cAMP, or 300 μM of ACI (SQ22536) for 4 days. The number of cells was counted. The results shown represent the means±standard deviation of a representative experiment.
as §1

[3] = system: young and senescent fibroblasts, HUVEC, skin keratinocytes; experiment: DNA synthesis ([3H]-thymidine incorporation)
Experimental: as §1, with “Sub-cultured young (PD 25) and senescent (PD 73) cells (A), skin fibroblasts from young and elderly donors (B), HUVEC (C) and skin keratinocytes (D) were serum-starved for 2 days and treated with 1 mM of dibutyryl-cAMP (dbcAMP), or 300 […]μM of ACI (SQ22536) for 2 hrs. Cells were then treated with 30 μM of LPA in the presence of 0.5 μCi/ml of [^3H]-radioactive isotope. The radioactivity incorporated into the DNA was counted and fold increase of radioactive isotope incorporation was calculated and plotted. The results shown represent the means±standard deviation of a representative experiment. Human” for “Human”, “days. […] Radioactivity in the neutralized lysates was counted in a liquid scintillation cocktail. The measured radioactivity as such was compared to that of control to find the synthesis degree of […].” for “days.”

## lysophosphatidic acid [LPA]
[1]; aged fibroblasts, treatment with LPA
  concentration of cAMP in aged cells: increased
[1]; young fibroblasts, treatment with LPA
  concentration of cAMP in young cells: lowered
[2]; LPA 1-70 μM, 4 days, young and senescent fibroblasts (FIG. 3)
  cell number (proliferation): induces proliferation of both young and senescent cells in a dose-dependent manner
[2]; 4 days
  cell number in senescent cells of various cell types: further enhanced

## Nc1ncnc2c1ncn2C1CCCO1 (stereo not drawn) [ACI, 9-(tetrahydro-2′-furyl)adenine]
[1]; 300 μM ACI, both young and senescent cells (FIG. 2)
  cAMP levels at 300 μM: complete abrogation
[1]; aged fibroblasts, ACI
  concentration of cAMP in aged cells upon treatment with ACI: again lowered
[1]; various concentrations of ACI, 1 hr, young (PD 20) and senescent (PD 65) fibroblasts (FIG. 2)
  cAMP levels: dose-dependently reduced cAMP levels
[2]; aged fibroblasts
  proliferation of aged cells compared to treatment with LPA: more increased
[2]; senescent fibroblasts (PD 73), 300 μM ACI, 4 days, unlike young cells (FIG. 3B)
  cell number in senescent cells following ACI treatment: significant increase in the cell number
[2]; 4 days
  cell number in senescent cells of various cell types: further enhanced
[3]; senescent cells, 1 mM dbcAMP or 300 μM ACI 2 hrs, then 30 μM LPA (FIG. 4A)
  basal and LPA-stimulated DNA synthesis in senescent cells: increased
[3]; young and aged fibroblasts, HUVEC and keratinocytes, 300 μM ACI (FIG. 4)
  thymidine incorporation, basal and LPA-stimulation conditions: enhanced the thymidine incorporation
